Measured values reported in ChEMBL document CHEMBL5465560, “Selectivity Literature for EUbOPEN Chemogenomic Library” (2024).

Tests used:
[1] = molecular target: Ephrin type-A receptor 4 (Homo sapiens, UniProt P54764); details: at 10 µM
[2] = molecular target: Tyrosine-protein kinase CSK (Homo sapiens) (UniProt P41240); assay: Selectivity interaction (Kinase screening (Nanosyn)) EUB0000604a CSK
[3] = molecular target: BDNF/NT-3 growth factors receptor (Homo sapiens) (UniProt Q16620); assay: Selectivity interaction (Ambit KINOMEscan and KiNATiv profiling in Jurkat cells) EUB0000090b NTRK2; assay type: cell-based; details: at 1 µM
[4] = molecular target: Receptor-interacting serine/threonine-protein kinase 3 (Homo sapiens) (UniProt Q9Y572); assay: Selectivity interaction (ActivX KiNativ screen (kinase selectivity in THP-1 cell lysates)) EUB0000639a RIPK3; assay type: subcellular; details: lysate
[5] = molecular target: Tyrosine-protein kinase ABL1 (Homo sapiens, UniProt P00519); assay: Selectivity interaction (ActivX KiNativ screen (kinase selectivity in THP-1 cell lysates)) EUB0000639a ABL1; assay type: subcellular; details: lysate, at 5 µM
[6] = molecular target: Serine/threonine-protein kinase Chk2 (Homo sapiens) (UniProt O96017); assay: Selectivity interaction (Kinase panel (literature)) EUB0001199aCl CHEK2; details: at 1 µM
[7] = molecular target: Mitogen-activated protein kinase 8 (Homo sapiens, UniProt P45983); assay: Selectivity interaction (Kinase panel (Z-LYTE Assay)) EUB0001632a MAPK8; details: at 10 µM
[8] = molecular target: BDNF/NT-3 growth factors receptor (Homo sapiens) (UniProt Q16620); assay: Selectivity interaction (KinomeScan (DiscoverX)) EUB0000695a NTRK2; details: at 100 nM
[9] = molecular target: T1, Ephrin type-B receptor 1 (Homo sapiens) (UniProt P54762); details: at 10 µM
T1 sequence (whole entry): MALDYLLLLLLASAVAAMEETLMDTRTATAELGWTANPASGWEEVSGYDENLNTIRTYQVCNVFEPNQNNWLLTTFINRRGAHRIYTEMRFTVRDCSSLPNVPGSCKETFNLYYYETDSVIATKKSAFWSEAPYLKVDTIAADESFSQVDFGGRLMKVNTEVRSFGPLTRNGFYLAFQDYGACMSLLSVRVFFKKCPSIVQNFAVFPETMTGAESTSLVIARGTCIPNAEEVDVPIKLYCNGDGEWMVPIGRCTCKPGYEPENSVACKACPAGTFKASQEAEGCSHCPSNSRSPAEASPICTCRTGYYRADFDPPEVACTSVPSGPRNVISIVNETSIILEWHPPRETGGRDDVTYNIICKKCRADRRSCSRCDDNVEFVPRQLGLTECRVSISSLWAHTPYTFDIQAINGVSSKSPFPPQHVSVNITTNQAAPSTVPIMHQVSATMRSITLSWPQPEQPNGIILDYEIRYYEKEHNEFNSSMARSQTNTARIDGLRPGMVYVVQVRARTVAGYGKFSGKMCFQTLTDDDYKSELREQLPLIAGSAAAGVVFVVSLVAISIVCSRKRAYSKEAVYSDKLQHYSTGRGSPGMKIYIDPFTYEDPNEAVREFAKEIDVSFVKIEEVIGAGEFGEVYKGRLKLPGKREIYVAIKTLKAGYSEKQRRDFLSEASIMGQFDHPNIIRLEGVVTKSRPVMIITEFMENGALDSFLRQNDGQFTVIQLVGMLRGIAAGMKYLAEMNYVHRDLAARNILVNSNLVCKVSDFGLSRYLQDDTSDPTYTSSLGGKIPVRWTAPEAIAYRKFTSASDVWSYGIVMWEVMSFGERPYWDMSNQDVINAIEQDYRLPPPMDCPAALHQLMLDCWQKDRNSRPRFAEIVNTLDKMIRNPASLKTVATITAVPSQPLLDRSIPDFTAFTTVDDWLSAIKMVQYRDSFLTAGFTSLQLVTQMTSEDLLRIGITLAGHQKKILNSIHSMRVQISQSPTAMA

[10] = molecular target: SRSF protein kinase 2 (Homo sapiens) (UniProt P78362); assay: Selectivity interaction (KinomeScan (DiscoverX)) EUB0000229b SRPK2; details: at 10 µM
[11] = molecular target: Serine/threonine-protein kinase PRP4 homolog (Homo sapiens) (UniProt Q13523); assay: Selectivity interaction (KinomeScan (DiscoverX)) EUB0001079a PRPF4B; details: at 1 µM
[12] = molecular target: Serine/threonine-protein kinase VRK2 (Homo sapiens) (UniProt Q86Y07); assay: Selectivity interaction (KinomeScan (DiscoverX)) EUB0000045b VRK2
[13] = molecular target: Serine/threonine-protein kinase 32B (Homo sapiens) (UniProt Q9NY57); assay: Selectivity interaction (KinomeScan (DiscoverX)) EUB0000655a STK32B; details: at 10 µM
[14] = molecular target: T2, Serine/threonine-protein kinase ULK3 (Homo sapiens) (UniProt Q6PHR2); assay: Selectivity interaction (KinomeScan (DiscoverX)) EUB0000618a ULK3; details: at 10 µM
T2 sequence (whole entry): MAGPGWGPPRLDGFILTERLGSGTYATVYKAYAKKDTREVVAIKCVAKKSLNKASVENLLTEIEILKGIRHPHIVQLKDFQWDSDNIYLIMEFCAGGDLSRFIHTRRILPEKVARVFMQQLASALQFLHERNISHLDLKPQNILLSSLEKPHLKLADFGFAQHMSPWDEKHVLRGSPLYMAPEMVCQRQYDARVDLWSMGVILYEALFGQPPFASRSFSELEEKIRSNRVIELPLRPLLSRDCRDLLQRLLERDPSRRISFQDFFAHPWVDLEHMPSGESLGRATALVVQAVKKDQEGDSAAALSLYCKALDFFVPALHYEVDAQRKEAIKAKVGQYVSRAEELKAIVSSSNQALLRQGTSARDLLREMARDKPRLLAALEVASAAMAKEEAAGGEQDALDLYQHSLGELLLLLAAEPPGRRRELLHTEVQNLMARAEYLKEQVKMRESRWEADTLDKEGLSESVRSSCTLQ

[15] = molecular target: T3, Serine/threonine-protein kinase STK11 (Homo sapiens) (UniProt Q15831); assay: Selectivity interaction (KinomeScan (DiscoverX)) EUB0000607a STK11; details: at 10 µM
T3 sequence (whole entry): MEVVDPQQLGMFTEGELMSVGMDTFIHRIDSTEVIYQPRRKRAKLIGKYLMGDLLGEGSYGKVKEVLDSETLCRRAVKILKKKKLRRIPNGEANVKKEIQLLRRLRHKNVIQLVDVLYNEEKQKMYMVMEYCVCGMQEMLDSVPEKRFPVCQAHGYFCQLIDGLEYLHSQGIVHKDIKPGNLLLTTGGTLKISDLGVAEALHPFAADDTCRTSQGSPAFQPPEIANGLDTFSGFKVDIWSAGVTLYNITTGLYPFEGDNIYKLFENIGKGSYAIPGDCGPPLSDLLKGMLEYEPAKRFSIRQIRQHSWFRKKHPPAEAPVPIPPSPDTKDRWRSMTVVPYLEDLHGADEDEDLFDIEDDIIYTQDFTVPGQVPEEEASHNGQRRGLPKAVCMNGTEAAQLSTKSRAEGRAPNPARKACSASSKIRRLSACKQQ

Receptor-interacting serine/threonine-protein kinase 3 (Homo sapiens), sequence (Q9Y572 whole entry, looked up): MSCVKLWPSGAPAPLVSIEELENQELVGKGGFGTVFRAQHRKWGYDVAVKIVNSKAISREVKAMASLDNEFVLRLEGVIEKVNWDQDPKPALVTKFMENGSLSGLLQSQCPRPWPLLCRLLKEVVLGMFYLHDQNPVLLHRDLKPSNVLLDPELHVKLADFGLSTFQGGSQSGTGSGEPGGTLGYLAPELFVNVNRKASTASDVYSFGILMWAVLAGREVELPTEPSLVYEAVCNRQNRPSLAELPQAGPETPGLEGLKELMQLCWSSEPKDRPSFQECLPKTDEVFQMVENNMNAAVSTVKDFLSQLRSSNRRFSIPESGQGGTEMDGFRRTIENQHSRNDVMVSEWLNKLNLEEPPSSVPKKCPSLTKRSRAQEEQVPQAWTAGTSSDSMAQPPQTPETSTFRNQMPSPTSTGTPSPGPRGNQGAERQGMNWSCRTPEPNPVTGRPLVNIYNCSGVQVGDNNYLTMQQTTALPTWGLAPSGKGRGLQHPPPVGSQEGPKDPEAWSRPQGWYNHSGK
Serine/threonine-protein kinase VRK2 (Homo sapiens), sequence (Q86Y07 whole entry): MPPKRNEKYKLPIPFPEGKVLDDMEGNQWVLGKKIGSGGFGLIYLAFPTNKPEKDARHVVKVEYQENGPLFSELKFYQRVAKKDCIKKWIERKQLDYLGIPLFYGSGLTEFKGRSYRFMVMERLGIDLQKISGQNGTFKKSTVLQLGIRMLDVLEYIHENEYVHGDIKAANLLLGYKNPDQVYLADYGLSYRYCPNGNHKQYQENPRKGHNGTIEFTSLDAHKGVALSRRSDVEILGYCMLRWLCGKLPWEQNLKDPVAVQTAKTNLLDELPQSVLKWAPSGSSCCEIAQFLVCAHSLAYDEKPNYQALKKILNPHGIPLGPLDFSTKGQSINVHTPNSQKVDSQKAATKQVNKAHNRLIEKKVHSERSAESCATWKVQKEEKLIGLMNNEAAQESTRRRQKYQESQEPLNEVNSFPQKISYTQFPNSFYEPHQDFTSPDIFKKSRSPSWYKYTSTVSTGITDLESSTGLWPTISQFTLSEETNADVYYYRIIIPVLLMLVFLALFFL
BDNF/NT-3 growth factors receptor (Homo sapiens), sequence (Q16620 32-822 limits assumed): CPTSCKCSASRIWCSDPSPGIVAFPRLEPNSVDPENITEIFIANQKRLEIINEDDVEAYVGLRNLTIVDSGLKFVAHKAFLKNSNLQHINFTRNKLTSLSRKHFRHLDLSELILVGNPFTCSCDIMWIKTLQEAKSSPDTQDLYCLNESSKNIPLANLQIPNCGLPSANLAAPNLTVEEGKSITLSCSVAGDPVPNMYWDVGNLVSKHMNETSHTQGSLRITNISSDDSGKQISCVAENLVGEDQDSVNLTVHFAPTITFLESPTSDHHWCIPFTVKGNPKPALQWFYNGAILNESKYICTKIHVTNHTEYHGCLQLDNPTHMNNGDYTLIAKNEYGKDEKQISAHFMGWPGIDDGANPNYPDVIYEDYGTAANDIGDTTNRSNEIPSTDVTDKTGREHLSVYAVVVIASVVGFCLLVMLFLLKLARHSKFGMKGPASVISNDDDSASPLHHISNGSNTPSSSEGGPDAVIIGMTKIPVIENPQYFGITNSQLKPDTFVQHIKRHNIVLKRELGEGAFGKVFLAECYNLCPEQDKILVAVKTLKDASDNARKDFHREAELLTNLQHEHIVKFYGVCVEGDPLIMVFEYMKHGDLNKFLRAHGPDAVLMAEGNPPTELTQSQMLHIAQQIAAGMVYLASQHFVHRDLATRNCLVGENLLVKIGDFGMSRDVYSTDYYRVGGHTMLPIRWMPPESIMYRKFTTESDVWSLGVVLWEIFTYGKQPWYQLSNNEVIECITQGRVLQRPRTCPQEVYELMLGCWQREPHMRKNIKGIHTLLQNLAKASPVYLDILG
Serine/threonine-protein kinase PRP4 homolog (Homo sapiens), sequence (Q13523 whole entry): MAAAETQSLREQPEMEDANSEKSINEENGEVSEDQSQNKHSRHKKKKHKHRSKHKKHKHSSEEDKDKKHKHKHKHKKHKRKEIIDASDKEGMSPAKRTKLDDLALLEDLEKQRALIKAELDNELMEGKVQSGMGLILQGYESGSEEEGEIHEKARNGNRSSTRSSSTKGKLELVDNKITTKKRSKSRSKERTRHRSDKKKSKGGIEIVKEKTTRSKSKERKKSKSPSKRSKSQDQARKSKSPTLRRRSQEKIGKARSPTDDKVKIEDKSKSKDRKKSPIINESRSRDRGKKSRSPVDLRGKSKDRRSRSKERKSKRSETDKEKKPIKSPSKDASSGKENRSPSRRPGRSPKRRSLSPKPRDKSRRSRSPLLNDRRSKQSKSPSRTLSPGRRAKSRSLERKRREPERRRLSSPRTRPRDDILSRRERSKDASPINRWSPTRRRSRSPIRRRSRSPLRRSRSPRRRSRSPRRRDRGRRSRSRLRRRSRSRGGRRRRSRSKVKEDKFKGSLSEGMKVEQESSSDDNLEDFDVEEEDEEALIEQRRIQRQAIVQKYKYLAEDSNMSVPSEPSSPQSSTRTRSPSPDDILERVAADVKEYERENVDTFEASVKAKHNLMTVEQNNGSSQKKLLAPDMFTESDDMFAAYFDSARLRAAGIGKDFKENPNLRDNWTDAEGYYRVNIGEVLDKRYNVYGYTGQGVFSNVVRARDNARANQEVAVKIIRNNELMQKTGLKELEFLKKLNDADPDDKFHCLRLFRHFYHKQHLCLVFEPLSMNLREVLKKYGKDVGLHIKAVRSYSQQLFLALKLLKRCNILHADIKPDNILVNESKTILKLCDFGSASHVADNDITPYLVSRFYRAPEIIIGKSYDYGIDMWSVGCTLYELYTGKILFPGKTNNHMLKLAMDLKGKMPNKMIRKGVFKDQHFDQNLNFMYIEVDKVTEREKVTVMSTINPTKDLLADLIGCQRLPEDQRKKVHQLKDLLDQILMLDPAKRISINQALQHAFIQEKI
Tyrosine-protein kinase CSK (Homo sapiens), sequence (P41240 2-450 limits assumed): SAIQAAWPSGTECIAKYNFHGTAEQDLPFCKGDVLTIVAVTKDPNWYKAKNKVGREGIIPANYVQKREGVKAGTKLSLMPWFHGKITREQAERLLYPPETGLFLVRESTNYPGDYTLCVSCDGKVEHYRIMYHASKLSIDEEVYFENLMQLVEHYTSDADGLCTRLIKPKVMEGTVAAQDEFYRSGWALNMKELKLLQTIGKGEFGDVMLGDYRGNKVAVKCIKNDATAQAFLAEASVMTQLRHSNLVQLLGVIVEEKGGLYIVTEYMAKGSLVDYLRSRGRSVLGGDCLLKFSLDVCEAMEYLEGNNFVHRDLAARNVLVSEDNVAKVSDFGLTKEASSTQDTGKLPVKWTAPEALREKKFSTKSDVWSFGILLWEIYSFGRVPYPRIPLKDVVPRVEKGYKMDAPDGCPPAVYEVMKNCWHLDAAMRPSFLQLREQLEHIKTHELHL
SRSF protein kinase 2 (Homo sapiens), sequence (P78362 whole entry, looked up): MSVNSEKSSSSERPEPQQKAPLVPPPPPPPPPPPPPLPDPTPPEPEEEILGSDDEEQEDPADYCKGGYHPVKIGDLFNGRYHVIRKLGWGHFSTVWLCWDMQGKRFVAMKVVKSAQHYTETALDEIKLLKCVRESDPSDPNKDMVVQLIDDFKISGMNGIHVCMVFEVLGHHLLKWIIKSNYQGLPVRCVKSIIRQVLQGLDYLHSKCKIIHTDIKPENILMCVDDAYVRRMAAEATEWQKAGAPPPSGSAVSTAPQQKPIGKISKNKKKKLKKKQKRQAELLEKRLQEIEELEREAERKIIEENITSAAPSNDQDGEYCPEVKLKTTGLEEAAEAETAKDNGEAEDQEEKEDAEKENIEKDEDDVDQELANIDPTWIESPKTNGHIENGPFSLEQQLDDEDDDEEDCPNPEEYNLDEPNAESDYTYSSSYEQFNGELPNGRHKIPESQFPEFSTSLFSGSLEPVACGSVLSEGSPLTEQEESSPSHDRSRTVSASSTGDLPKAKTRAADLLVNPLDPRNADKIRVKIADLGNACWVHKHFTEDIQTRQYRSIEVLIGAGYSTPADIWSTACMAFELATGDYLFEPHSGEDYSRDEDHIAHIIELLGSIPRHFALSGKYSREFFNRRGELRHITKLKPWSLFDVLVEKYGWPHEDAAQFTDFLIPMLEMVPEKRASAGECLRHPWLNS
Mitogen-activated protein kinase 8, sequence (P45983 whole entry): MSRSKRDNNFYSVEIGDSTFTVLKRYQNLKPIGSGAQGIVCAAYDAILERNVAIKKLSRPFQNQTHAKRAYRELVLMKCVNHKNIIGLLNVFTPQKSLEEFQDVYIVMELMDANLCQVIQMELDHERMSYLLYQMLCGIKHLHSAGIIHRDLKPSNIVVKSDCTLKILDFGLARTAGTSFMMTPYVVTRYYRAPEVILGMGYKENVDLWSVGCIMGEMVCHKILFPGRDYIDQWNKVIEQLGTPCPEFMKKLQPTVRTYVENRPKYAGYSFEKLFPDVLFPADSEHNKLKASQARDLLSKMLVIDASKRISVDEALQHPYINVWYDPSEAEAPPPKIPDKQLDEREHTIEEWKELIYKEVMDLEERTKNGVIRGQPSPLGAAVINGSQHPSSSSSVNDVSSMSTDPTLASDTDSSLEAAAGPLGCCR
Serine/threonine-protein kinase 32B (Homo sapiens), sequence (Q9NY57 whole entry): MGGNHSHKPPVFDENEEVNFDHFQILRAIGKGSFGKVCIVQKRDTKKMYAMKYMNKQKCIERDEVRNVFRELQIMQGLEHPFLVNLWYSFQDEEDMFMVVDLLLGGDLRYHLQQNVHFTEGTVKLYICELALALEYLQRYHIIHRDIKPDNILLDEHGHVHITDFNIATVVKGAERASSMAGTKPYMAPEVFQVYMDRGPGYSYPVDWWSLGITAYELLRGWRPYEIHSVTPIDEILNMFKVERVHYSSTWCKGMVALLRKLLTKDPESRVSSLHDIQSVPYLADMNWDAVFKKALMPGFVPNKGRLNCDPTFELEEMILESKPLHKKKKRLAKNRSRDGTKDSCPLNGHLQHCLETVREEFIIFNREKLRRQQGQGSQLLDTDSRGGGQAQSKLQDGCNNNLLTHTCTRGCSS

Cc1cc([C@@H](C)Nc2ccccc2C(=O)O)c2nc(N3CCOCC3)cc(=O)n2c1 [AZD-6482]
% of control [1]: 93%

Cc1cnc(Nc2ccc(F)cc2Cl)nc1-c1c[nH]c(C(=O)N[C@H](CO)c2cccc(Cl)c2)c1
% of inhibition [2]: 3%

CN(C)C/C=C/C(=O)Nc1ccc(C(=O)N2CCCC(Nc3ncc(Cl)c(-c4c[nH]c5ccccc45)n3)C2)cc1 (stereo not given)
% of control [3]: 76%

CC[C@@H]1[C@H](F)C(=O)N[C@@H]1COc1nccc2cc(C(N)=O)c(OC)cc12 [ZIMLOVISERTIB]
% of inhibition ([4]; at 0.01 µM): 3% | % of inhibition ([4]; at 0.04 µM): -0.8% | % of inhibition ([4]; at 0.2 µM): -4.3% | % of inhibition ([4]; at 1 µM): 8.9% | % of inhibition ([4]; at 5 µM): -8.6% | % of inhibition [5]: 30.7%

CN1Cc2nccc(-c3cn(C)nc3-c3ccc(F)cc3)c2C1=O
% of inhibition [6]: 0%

Cn1cc(-n2cnc3c(NCc4nc5cc(Cl)c(Cl)cc5[nH]4)nc(N4CCOCC4)nc32)cn1
% of control [7]: -4.21%

Cc1cc(F)c(C(=O)Nc2cccc(-c3nncn3C(C)C)n2)cc1-n1cnc(C2CC2)c1
% of control [8]: 65%

CCN(CC)CCCCNc1ncc2cc(-c3cc(OC)cc(OC)c3)c(NC(=O)NC(C)(C)C)nc2n1
% of control [9]: 100%

COc1cc(N(C)c2ccnc3ccc(C(F)(F)F)cc23)cc(OC)c1OC
% binding [10]: 94%

Nc1cnc(N2CCc3cc(S(=O)(=O)Nc4c(F)cc(Cl)cc4F)cc(N4CCCC4=O)c32)nc1 [TP-020n]
% of control [11]: 76%

C=CC(=O)Nc1cc(-n2c(=O)ccc3cnc4ccc(-c5ccc(NS(C)(=O)=O)cc5)cc4c32)ccc1C
% of control ([12]; at 1 µM): 100% | % of control ([12]; at 10 µM): 86%

CN(C)CCOc1ccc(-c2nc(-c3ccncc3)c(-c3ccc4c(c3)CC/C4=N\O)[nH]2)cc1
% of control [13]: 85%

O[C@H]1CC[C@H](Nc2ncc3nc(Nc4c(F)cc(F)cc4F)n([C@H]4CCOC4)c3n2)CC1
% of control [14]: 94%

CNC(=O)Nc1ccc(-c2nc(N3CC4CCC(C3)O4)c3cnn(C4CCC5(CC4)OCCO5)c3n2)cc1
% of control [15]: 80%
